In ChEMBL document CHEMBL4507310, “Data for DCP probe A-1211212” (2021):

Experiments:
[1] = molecular target: Beta-1 adrenergic receptor (Homo sapiens) (UniProt P08588); test: Beta1 (h) Eurofins-Cerep binding assay; set-up: ligand concentration 0.3 nM; settings: filed as agonist, Compound concentration 10.0 uM
[2] = molecular target: GABA-A receptor; alpha-1/beta-2/gamma-2 (Homo sapiens) (UniProt P14867+P47870+P18507); test: GABAA1 (h) (alpha1,beta2,gamma2) Eurofins-Cerep binding assay; type: protein-complex assay; set-up: ligand concentration 15 nM; settings: filed as agonist, Compound concentration 10.0 uM
[3] = molecular target: 5-hydroxytryptamine receptor 7 (Homo sapiens) (UniProt P34969); test: 5-HT7 (h) Eurofins-Cerep binding assay; set-up: ligand concentration 4 nM; settings: filed as agonist, Compound concentration 10.0 uM
[4] = molecular target: L-type Ca2+ channel (diltiazem site, benzothiazepines) (Rattus norvegicus, UniProt P22002+P27732+Q02485); test: Ca2+ channel (L, diltiazem site) (benzothiazepines) Eurofins-Cerep binding assay; type: protein assay; set-up: incubation time 120 min, incubation temperature RT, ligand concentration 15 nM; settings: rat cerebral cortex, probe [3H]diltiazem (15 nM), compound concentration 10 uM, read-out: % Inhibition of Control Specific Binding (Mean n=2)
[5] = molecular target: GABA-A receptor; anion channel (Rattus norvegicus) (UniProt O09028+P15431+P18506+P18508+P19969+P20236+P23574+P23576+P28471+P28473+P30191+P62813+P63079+P63138+Q91ZM7+Q9ES14); test: Cl- channel (GABA-gated) Eurofins-Cerep binding assay; type: protein-complex assay; set-up: ligand concentration 3 nM; settings: filed as antagonist, Compound concentration 10.0 uM
[6] = molecular target: AP2-associated protein kinase 1 (Homo sapiens) (UniProt Q2M2I8); settings: Compound concentration 1000.0 nM
Sequence of AP2-associated protein kinase 1 (Homo sapiens) (Q2M2I8 whole entry, looked up): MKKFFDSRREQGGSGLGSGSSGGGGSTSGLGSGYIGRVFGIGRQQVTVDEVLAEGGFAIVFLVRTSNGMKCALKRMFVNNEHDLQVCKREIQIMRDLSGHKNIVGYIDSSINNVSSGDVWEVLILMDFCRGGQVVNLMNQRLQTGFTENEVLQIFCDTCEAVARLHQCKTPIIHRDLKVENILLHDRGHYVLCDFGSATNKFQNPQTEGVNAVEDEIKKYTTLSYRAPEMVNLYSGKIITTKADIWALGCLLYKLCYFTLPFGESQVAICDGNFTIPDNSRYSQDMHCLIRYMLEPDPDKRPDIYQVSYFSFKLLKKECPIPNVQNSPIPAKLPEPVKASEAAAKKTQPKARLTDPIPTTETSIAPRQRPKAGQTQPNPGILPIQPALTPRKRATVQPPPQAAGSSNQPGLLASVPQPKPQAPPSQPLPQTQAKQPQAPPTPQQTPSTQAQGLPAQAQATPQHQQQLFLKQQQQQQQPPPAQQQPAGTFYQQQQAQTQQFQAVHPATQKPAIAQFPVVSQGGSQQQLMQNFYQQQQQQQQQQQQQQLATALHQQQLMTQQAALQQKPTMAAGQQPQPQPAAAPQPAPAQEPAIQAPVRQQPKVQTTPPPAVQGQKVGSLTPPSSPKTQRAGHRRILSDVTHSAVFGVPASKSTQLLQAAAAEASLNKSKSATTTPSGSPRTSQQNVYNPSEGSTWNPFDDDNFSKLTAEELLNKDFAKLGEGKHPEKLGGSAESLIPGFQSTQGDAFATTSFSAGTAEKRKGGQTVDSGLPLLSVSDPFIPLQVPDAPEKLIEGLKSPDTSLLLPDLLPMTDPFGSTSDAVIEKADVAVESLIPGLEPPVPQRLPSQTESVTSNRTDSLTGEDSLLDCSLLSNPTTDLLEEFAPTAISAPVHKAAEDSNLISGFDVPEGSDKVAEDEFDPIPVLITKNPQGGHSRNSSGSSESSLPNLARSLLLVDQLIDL

[7] = molecular target: Activin receptor type-1B (Homo sapiens) (UniProt P36896); settings: Compound concentration 1000.0 nM
[8] = molecular target: Atypical kinase COQ8B, mitochondrial (Homo sapiens) (UniProt Q96D53); settings: Compound concentration 1000.0 nM
[9] = molecular target: Serine/threonine-protein kinase B-raf (Homo sapiens) (UniProt P15056); settings: Compound concentration 1000.0 nM
[10] = molecular target: Tyrosine-protein kinase BTK (Homo sapiens) (UniProt Q06187); settings: Compound concentration 1000.0 nM
[11] = molecular target: Macrophage colony-stimulating factor 1 receptor (Homo sapiens) (UniProt P07333); settings: Compound concentration 1000.0 nM
[12] = molecular target: Death-associated protein kinase 3 (Homo sapiens) (UniProt O43293); settings: Compound concentration 1000.0 nM
Sequence of Death-associated protein kinase 3 (Homo sapiens) (O43293 whole entry, looked up): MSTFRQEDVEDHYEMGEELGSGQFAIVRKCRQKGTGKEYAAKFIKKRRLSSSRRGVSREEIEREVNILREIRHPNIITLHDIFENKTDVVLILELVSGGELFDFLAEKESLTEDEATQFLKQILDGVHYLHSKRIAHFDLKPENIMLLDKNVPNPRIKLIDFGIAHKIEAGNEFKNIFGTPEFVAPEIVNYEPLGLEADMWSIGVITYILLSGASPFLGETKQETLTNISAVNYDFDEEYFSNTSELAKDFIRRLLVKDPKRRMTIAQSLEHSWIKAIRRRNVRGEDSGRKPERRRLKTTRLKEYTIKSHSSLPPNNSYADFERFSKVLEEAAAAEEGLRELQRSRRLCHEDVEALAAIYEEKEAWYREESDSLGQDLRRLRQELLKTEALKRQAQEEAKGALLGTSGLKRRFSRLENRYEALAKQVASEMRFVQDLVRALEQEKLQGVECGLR

[13] = molecular target: Mitogen-activated protein kinase kinase kinase 12 (Homo sapiens) (UniProt Q12852); settings: Compound concentration 1000.0 nM
Sequence of Mitogen-activated protein kinase kinase kinase 12 (Homo sapiens) (Q12852 whole entry): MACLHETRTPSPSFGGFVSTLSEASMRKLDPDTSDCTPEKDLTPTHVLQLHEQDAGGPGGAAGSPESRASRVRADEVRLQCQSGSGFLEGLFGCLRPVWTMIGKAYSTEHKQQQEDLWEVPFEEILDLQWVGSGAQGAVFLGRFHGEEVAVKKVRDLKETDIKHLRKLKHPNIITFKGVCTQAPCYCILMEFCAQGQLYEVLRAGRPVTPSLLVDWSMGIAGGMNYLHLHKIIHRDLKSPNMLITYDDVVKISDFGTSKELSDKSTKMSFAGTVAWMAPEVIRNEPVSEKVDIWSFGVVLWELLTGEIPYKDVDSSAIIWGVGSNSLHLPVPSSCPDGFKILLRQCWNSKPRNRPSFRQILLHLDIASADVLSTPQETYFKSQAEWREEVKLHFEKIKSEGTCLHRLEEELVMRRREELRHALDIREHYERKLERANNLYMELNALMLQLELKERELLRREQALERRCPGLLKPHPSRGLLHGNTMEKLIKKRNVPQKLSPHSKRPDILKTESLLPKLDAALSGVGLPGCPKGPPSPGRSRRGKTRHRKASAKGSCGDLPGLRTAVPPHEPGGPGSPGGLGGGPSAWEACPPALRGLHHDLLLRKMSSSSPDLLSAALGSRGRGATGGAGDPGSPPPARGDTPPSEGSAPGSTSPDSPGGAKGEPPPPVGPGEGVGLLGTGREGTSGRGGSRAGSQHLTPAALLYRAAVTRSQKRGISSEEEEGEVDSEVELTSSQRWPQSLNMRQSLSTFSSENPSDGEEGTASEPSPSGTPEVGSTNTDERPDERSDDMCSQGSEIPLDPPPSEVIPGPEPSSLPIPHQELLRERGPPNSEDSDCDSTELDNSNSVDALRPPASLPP

[14] = tested on: Epidermal growth factor receptor (Homo sapiens), P00533 [L858R,T790M]; settings: Compound concentration 1000.0 nM
[15] = molecular target: Interleukin-1 receptor-associated kinase 3 (Homo sapiens) (UniProt Q9Y616); settings: Compound concentration 1000.0 nM
Sequence of Interleukin-1 receptor-associated kinase 3 (Homo sapiens) (Q9Y616 whole entry): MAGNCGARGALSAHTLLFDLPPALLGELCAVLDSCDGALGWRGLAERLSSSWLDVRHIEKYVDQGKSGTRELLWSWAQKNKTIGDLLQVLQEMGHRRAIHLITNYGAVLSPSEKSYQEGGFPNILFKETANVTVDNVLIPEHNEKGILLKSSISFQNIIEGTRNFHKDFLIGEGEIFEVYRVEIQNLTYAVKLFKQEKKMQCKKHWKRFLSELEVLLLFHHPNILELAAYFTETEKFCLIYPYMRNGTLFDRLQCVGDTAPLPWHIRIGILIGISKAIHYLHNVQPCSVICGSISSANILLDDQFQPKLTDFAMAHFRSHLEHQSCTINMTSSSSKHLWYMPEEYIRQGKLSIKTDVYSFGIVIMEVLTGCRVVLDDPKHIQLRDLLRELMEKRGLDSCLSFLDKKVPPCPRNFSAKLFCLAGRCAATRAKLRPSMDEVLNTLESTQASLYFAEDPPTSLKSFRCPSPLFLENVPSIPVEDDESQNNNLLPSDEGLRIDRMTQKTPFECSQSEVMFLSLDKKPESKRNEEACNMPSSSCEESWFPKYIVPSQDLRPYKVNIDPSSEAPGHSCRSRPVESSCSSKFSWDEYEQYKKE

[16] = molecular target: Serine/threonine-protein kinase 24 (Homo sapiens) (UniProt Q9Y6E0); settings: Compound concentration 1000.0 nM
[17] = molecular target: Mitogen-activated protein kinase 13 (Homo sapiens) (UniProt O15264); settings: Compound concentration 1000.0 nM
[18] = molecular target: Cyclin-dependent kinase 16 (Homo sapiens) (UniProt Q00536); settings: Compound concentration 1000.0 nM
[19] = molecular target: Cyclin-dependent kinase 2 homolog (Plasmodium falciparum (isolate 3D7)) (UniProt P61075); settings: Compound concentration 1000.0 nM
[20] = molecular target: Phosphatidylinositol 4,5-bisphosphate 3-kinase catalytic subunit gamma isoform (Homo sapiens) (UniProt P48736); settings: Compound concentration 1000.0 nM
[21] = molecular target: Phosphatidylinositol 4-phosphate 5-kinase type-1 gamma (Homo sapiens) (UniProt O60331); settings: Compound concentration 1000.0 nM
[22] = molecular target: Protein kinase C iota type (Homo sapiens) (UniProt P41743); settings: Compound concentration 1000.0 nM
[23] = molecular target: Protein kinase C theta type (Homo sapiens) (UniProt Q04759); settings: Compound concentration 1000.0 nM
[24] = molecular target: Rho-associated protein kinase 1 (Homo sapiens) (UniProt Q13464); settings: Compound concentration 1000.0 nM
[25] = molecular target: Rho-associated protein kinase 2 (Homo sapiens) (UniProt O75116); settings: Compound concentration 1000.0 nM
[26] = molecular target: Ribosomal protein S6 kinase alpha-4 (Homo sapiens) (UniProt O75676); settings: Compound concentration 1000.0 nM
[27] = molecular target: Ribosomal protein S6 kinase alpha-1 (Homo sapiens) (UniProt Q15418); settings: Compound concentration 1000.0 nM
Sequence of Ribosomal protein S6 kinase alpha-1 (Homo sapiens) (Q15418 whole entry): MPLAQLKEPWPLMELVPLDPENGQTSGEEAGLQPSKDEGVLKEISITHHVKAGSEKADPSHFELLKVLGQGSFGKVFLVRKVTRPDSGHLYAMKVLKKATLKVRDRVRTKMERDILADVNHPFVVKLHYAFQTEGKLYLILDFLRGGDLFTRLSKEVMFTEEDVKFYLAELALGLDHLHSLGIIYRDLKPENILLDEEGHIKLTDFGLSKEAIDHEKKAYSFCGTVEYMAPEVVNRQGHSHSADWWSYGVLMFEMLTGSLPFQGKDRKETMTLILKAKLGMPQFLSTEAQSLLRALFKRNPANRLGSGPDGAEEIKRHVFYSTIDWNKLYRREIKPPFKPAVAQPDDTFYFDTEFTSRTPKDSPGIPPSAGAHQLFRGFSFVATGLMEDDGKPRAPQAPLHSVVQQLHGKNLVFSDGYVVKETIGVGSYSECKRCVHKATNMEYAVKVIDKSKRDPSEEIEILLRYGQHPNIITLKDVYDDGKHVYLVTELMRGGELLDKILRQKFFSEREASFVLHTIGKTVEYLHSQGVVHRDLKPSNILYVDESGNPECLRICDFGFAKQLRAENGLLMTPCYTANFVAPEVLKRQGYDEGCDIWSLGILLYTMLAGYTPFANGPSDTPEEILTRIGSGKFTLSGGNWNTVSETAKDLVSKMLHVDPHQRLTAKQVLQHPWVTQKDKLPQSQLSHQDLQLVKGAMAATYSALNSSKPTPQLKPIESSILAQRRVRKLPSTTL

[28] = molecular target: Uncharacterized serine/threonine-protein kinase SBK3 (Homo sapiens) (UniProt P0C264); settings: Compound concentration 1000.0 nM
[29] = molecular target: Dual specificity testis-specific protein kinase 1 (Homo sapiens) (UniProt Q15569); settings: Compound concentration 1000.0 nM
[30] = molecular target: BDNF/NT-3 growth factors receptor (Homo sapiens) (UniProt Q16620); settings: Compound concentration 1000.0 nM
[31] = molecular target: Serine/threonine-protein kinase ULK3 (Homo sapiens) (UniProt Q6PHR2); settings: Compound concentration 1000.0 nM
Sequence of Serine/threonine-protein kinase ULK3 (Homo sapiens) (Q6PHR2 whole entry): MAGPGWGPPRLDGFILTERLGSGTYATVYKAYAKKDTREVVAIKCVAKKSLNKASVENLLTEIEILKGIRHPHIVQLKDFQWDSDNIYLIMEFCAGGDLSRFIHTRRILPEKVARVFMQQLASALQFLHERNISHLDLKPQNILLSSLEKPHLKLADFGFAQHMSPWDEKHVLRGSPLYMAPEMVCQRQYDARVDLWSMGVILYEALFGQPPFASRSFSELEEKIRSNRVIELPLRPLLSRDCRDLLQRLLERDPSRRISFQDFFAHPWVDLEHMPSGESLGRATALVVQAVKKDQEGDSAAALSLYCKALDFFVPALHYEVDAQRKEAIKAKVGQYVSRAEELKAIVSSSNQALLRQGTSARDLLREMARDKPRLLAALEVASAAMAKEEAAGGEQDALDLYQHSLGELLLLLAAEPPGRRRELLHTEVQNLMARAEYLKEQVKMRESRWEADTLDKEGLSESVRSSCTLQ

[32] = molecular target: Serine/threonine-protein kinase WNK1 (Homo sapiens) (UniProt Q9H4A3); settings: Compound concentration 1000.0 nM
[33] = molecular target: Mitogen-activated protein kinase kinase kinase 20 (Homo sapiens) (UniProt Q9NYL2); settings: Compound concentration 1000.0 nM
[34] = molecular target: 5-hydroxytryptamine receptor 1E (Homo sapiens) (UniProt P28566); settings: Compound concentration 10.0 uM
Sequence of 5-hydroxytryptamine receptor 1E (Homo sapiens) (P28566 whole entry): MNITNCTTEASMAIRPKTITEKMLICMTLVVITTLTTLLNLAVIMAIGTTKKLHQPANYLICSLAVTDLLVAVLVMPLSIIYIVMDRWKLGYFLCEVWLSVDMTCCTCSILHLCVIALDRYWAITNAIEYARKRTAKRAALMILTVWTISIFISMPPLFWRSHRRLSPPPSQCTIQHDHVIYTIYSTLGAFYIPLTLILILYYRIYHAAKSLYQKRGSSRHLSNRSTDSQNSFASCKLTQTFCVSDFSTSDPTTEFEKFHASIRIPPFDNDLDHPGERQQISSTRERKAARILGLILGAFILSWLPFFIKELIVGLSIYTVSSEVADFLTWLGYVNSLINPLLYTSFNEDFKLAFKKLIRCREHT

[35] = molecular target: Mu-type opioid receptor (Homo sapiens) (UniProt P35372); settings: Compound concentration 10.0 uM
Sequence of Mu-type opioid receptor (Homo sapiens) (P35372 whole entry): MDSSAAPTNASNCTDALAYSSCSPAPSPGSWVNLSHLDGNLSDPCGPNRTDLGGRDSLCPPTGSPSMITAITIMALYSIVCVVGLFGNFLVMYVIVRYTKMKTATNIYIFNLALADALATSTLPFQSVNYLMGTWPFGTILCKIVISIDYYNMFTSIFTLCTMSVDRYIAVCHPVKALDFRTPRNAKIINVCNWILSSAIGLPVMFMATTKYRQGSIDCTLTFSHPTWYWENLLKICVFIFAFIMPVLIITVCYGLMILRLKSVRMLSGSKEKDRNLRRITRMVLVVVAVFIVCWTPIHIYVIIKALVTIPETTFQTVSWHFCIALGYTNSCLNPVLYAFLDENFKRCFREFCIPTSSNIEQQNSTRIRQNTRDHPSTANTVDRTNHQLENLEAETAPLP

[36] = molecular target: Sigma intracellular receptor 2 (Homo sapiens, UniProt Q5BJF2); settings: Compound concentration 10.0 uM
Sequence of Sigma intracellular receptor 2 (Q5BJF2 whole entry): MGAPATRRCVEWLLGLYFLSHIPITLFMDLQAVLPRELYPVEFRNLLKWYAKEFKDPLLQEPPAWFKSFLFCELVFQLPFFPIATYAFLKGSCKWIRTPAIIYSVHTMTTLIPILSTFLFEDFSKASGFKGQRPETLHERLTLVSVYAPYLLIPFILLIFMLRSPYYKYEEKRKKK

| SMILES | % Inhibition of Control Specific Binding (Mean n=2) [1] [%] | % Inhibition of Control Specific Binding (Mean n=2) [2] [%] | % Inhibition of Control Specific Binding (Mean n=2) [3] [%] | inhibition at 120 min, 10 µM [4] [%] | % Inhibition of Control Specific Binding (Mean n=2) [5] [%] | residual activity [6] [%] | residual activity [7] [%] | residual activity [8] [%] | residual activity [9] [%] | residual activity [10] [%] | residual activity [11] [%] | residual activity [12] [%] | residual activity [13] [%] | residual activity [14] [%] | residual activity [15] [%] | residual activity [16] [%] | residual activity [17] [%] | residual activity [18] [%] | residual activity [19] [%] | residual activity [20] [%] | other results |
| --- | --- | --- | --- | --- | --- | --- | --- | --- | --- | --- | --- | --- | --- | --- | --- | --- | --- | --- | --- | --- | --- |
| O=C(NS(=O)(=O)c1ccc(NCC2CCOCC2)c([N+](=O)[O-])c1)c1ccc(N2CCN(Cc3ccc(C(F)(F)F)cc3-c3ccc(Cl)cc3)CC2)cc1Oc1cnc2[nH]ccc2c1 [A-1210227] | -8.2 | -0.7 | 10.2 | -124 | -1.3 | 98 | 59 | 90 | 100 | 100 | 100 | 91 | 100 | 75 | 100 | 100 | 99 | 67 | 100 | 86 | residual activity [21]: 100%; residual activity [22]: 100%; residual activity [23]: 100%; residual activity [24]: 100%; residual activity [25]: 100%; residual activity [26]: 89%; residual activity [27]: 95%; residual activity [28]: 100%; residual activity [29]: 100%; residual activity [30]: 88%; residual activity [31]: 85%; residual activity [32]: 100%; residual activity [33]: 100%; inhibition [34]: 10.4%; inhibition [35]: 10.7%; inhibition [36]: 54.3% |
| CO[C@H]1CC[C@H](CNc2ccc(S(=O)(=O)NC(=O)c3ccc(N4CCN(CC5=C(c6ccc(Cl)cc6)CC(C)(C)CC5)CC4)cc3Oc3cnc4[nH]ccc4c3)cc2[N+](=O)[O-])CC1 [A-1211212] | -10.9 | -12.2 | 11.4 | -6.2 | 1.3 | 78 | 67 | 100 | 100 | 100 | 86 | 68 | 100 | 98 | 100 | 75 | 96 | 61 | 100 | 86 | residual activity [21]: 100%; residual activity [22]: 79%; residual activity [23]: 89%; residual activity [24]: 70%; residual activity [25]: 100%; residual activity [26]: 90%; residual activity [27]: 69%; residual activity [28]: 83%; residual activity [29]: 100%; residual activity [30]: 100%; residual activity [31]: 80%; residual activity [32]: 100%; residual activity [33]: 100%; inhibition [34]: -1.62%; inhibition [35]: 10.2%; inhibition [36]: 60.7% |
